Test results taken from PubChem BioAssay AID1918931 (Molecular Pharmacology Branch, DTP, NCI, 2023).
Values joined by “and” are separate entries in the source; they are usually repeats but may differ in a detail not shown here. Equal values may be shown once.

Tested on: 138582-337-R-J1-PDC complex spheroid viability
Assay: Anticancer human tumor 138582-337-R-J1-PDC patient-derived Merkel cell tumor cell line growth inhibition
Settings: for IC50: curve of first compound; for viability, T/C: stronger effect = lower value
Outline: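 Complex spheroids of tumor cells with HUVEC and human MSCs, exposed to iadademstat combined with other agents. Each agent tested in half-log steps from near clinical Cmax (else 10 microM top), DMSO ≤0.25%.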

[1] = second compound 0.1 µM, first compound 0.0316 µM
[2] = second compound 0.1 µM, first compound 0.1 µM
[3] = second compound 0.316 µM, first compound 0.0316 µM
[4] = second compound 0.316 µM, first compound 0.1 µM
[5] = second compound 1 µM, first compound 0.0316 µM
[6] = second compound 1 µM, first compound 0.1 µM
[7] = second compound 3.16 µM, first compound 0.0316 µM
[8] = second compound 3.16 µM, first compound 0.1 µM
[9] = second compound 10 µM, first compound 0.0316 µM
[10] = second compound 10 µM, first compound 0.1 µM
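Wherever viability, T/C is given: 100% = DMSO vehicle control viability.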

Compound: O=C(c1cc(Cc2n[nH]c(=O)c3ccccc23)ccc1F)N1CCN(C(=O)C2CC2)CC1 + NC1CC1c1ccc(-c2cccc(O)c2)cc1
- IC50 (second compound 0.1 µM): 9080 nM
- IC50 (second compound 0.316 µM): 5150 nM
- IC50 (second compound 1 µM): > 10000 nM
- IC50 (second compound 3.16 µM): > 10000 nM
- IC50 (second compound 10 µM): > 10000 nM
- viability, T/C [1]: 72%
- viability, T/C [2]: 74.9%
- viability, T/C (second compound 0.1 µM, first compound 0.316 µM): 68.4%
- viability, T/C (second compound 0.1 µM, first compound 1 µM): 68.5%
- viability, T/C (second compound 0.1 µM, first compound 3.16 µM): 58.6%
- viability, T/C (second compound 0.1 µM, first compound 10 µM): 49.5%
- viability, T/C [3]: 68.6%
- viability, T/C [4]: 73.7%
- viability, T/C (second compound 0.316 µM, first compound 0.316 µM): 66.2%
- viability, T/C (second compound 0.316 µM, first compound 1 µM): 57.6%
- viability, T/C (second compound 0.316 µM, first compound 3.16 µM): 53.6%
- viability, T/C (second compound 0.316 µM, first compound 10 µM): 45.7%
- viability, T/C [5]: 76.5%
- viability, T/C [6]: 77.3%
- viability, T/C (second compound 1 µM, first compound 0.316 µM): 70.9%
- viability, T/C (second compound 1 µM, first compound 1 µM): 64.8%
- viability, T/C (second compound 1 µM, first compound 3.16 µM): 62.4%
- viability, T/C (second compound 1 µM, first compound 10 µM): 57.4%
- viability, T/C [7]: 78.8%
- viability, T/C [8]: 79.8%
- viability, T/C (second compound 3.16 µM, first compound 0.316 µM): 82.4%
- viability, T/C (second compound 3.16 µM, first compound 1 µM): 70.7%
- viability, T/C (second compound 3.16 µM, first compound 3.16 µM): 80%
- viability, T/C (second compound 3.16 µM, first compound 10 µM): 60.6%
- viability, T/C [9]: 81.5%
- viability, T/C [10]: 81.1%
- viability, T/C (second compound 10 µM, first compound 0.316 µM): 80.3%
- viability, T/C (second compound 10 µM, first compound 1 µM): 93.3%
- viability, T/C (second compound 10 µM, first compound 3.16 µM): 71.3%
- viability, T/C (second compound 10 µM, first compound 10 µM): 87.1%

Compound: CC1COCCN1c1cc(-c2ccnn2C)c2ccnc(-c3ccn[nH]3)c2n1 (stereo unspecified)
- viability, T/C (compound 0.00316 µM): 76.4% and 67.9%
- viability, T/C (compound 0.01 µM): 86.4% and 64.7%
- viability, T/C (compound 0.0316 µM): 69.7% and 48.6%
- viability, T/C (compound 0.1 µM): 61% and 34.3%
- viability, T/C (compound 0.316 µM): 61% and 28.5%
- viability, T/C (compound 1 µM): 39.8% and 25.1%

Compound: Cn1ncnc1C1c2n[nH]c(=O)c3cc(F)cc(c23)NC1c1ccc(F)cc1 (stereo unspecified) + NC1CCC(NC2CC2c2ccccc2)CC1
- IC50 (second compound 0.1 µM): > 100 nM
- IC50 (second compound 0.316 µM): > 100 nM
- IC50 (second compound 1 µM): > 100 nM
- IC50 (second compound 3.16 µM): > 100 nM
- IC50 (second compound 10 µM): > 100 nM
- viability, T/C (second compound 0.1 µM, first compound 0.000316 µM): 82.5%
- viability, T/C (second compound 0.1 µM, first compound 0.001 µM): 87.7%
- viability, T/C (second compound 0.1 µM, first compound 0.00316 µM): 89%
- viability, T/C (second compound 0.1 µM, first compound 0.01 µM): 91.2%
- viability, T/C [1]: 87.9%
- viability, T/C [2]: 98.5%
- viability, T/C (second compound 0.316 µM, first compound 0.000316 µM): 84.7%
- viability, T/C (second compound 0.316 µM, first compound 0.001 µM): 90.9%
- viability, T/C (second compound 0.316 µM, first compound 0.00316 µM): 95.7%
- viability, T/C (second compound 0.316 µM, first compound 0.01 µM): 79.1%
- viability, T/C [3]: 93.3%
- viability, T/C [4]: 105%
- viability, T/C (second compound 1 µM, first compound 0.000316 µM): 97.5%
- viability, T/C (second compound 1 µM, first compound 0.001 µM): 88.7%
- viability, T/C (second compound 1 µM, first compound 0.00316 µM): 94.3%
- viability, T/C (second compound 1 µM, first compound 0.01 µM): 83.8%
- viability, T/C [5]: 90.7%
- viability, T/C [6]: 97.9%
- viability, T/C (second compound 3.16 µM, first compound 0.000316 µM): 101%
- viability, T/C (second compound 3.16 µM, first compound 0.001 µM): 89.4%
- viability, T/C (second compound 3.16 µM, first compound 0.00316 µM): 83.1%
- viability, T/C (second compound 3.16 µM, first compound 0.01 µM): 81.2%
- viability, T/C [7]: 82.3%
- viability, T/C [8]: 102%
- viability, T/C (second compound 10 µM, first compound 0.000316 µM): 84.7%
- viability, T/C (second compound 10 µM, first compound 0.001 µM): 82.8%
- viability, T/C (second compound 10 µM, first compound 0.00316 µM): 83.2%
- viability, T/C (second compound 10 µM, first compound 0.01 µM): 77%
- viability, T/C [9]: 73.7%
- viability, T/C [10]: 81.5%

Compound: COc1cc(C2c3cc4c(cc3C(OC3OC5COC(C)OC5C(O)C3O)C3COC(=O)C23)OCO4)cc(OC)c1O (stereo unspecified) + NC1CC1c1ccc(-c2cccc(O)c2)cc1
- IC50 (second compound 0.1 µM): 762 nM
- IC50 (second compound 0.316 µM): 690 nM
- IC50 (second compound 1 µM): 559 nM
- IC50 (second compound 3.16 µM): 767 nM
- IC50 (second compound 10 µM): 265 nM
- viability, T/C (second compound 0.1 µM, first compound 0.00949 µM): 60.8%
- viability, T/C (second compound 0.1 µM, first compound 0.03 µM): 72.3%
- viability, T/C (second compound 0.1 µM, first compound 0.0949 µM): 63%
- viability, T/C (second compound 0.1 µM, first compound 0.3 µM): 48.5%
- viability, T/C (second compound 0.1 µM, first compound 0.949 µM): 52.9%
- viability, T/C (second compound 0.1 µM, first compound 3 µM): 36.7%
- viability, T/C (second compound 0.316 µM, first compound 0.00949 µM): 67.1%
- viability, T/C (second compound 0.316 µM, first compound 0.03 µM): 69.8%
- viability, T/C (second compound 0.316 µM, first compound 0.0949 µM): 63.1%
- viability, T/C (second compound 0.316 µM, first compound 0.3 µM): 51.1%
- viability, T/C (second compound 0.316 µM, first compound 0.949 µM): 52.3%
- viability, T/C (second compound 0.316 µM, first compound 3 µM): 29.9%
- viability, T/C (second compound 1 µM, first compound 0.00949 µM): 76.8%
- viability, T/C (second compound 1 µM, first compound 0.03 µM): 75.9%
- viability, T/C (second compound 1 µM, first compound 0.0949 µM): 60.6%
- viability, T/C (second compound 1 µM, first compound 0.3 µM): 53.2%
- viability, T/C (second compound 1 µM, first compound 0.949 µM): 45%
- viability, T/C (second compound 1 µM, first compound 3 µM): 40.7%
- viability, T/C (second compound 3.16 µM, first compound 0.00949 µM): 69.7%
- viability, T/C (second compound 3.16 µM, first compound 0.03 µM): 75.9%
- viability, T/C (second compound 3.16 µM, first compound 0.0949 µM): 65.9%
- viability, T/C (second compound 3.16 µM, first compound 0.3 µM): 51.8%
- viability, T/C (second compound 3.16 µM, first compound 0.949 µM): 53.1%
- viability, T/C (second compound 3.16 µM, first compound 3 µM): 31.6%
- viability, T/C (second compound 10 µM, first compound 0.00949 µM): 71.2%
- viability, T/C (second compound 10 µM, first compound 0.03 µM): 77.3%
- viability, T/C (second compound 10 µM, first compound 0.0949 µM): 58.4%
- viability, T/C (second compound 10 µM, first compound 0.3 µM): 50.1%
- viability, T/C (second compound 10 µM, first compound 0.949 µM): 41.4%
- viability, T/C (second compound 10 µM, first compound 3 µM): 37%
